Laboratory results: ChEMBL document CHEMBL1649394, “Cytotoxic and protective DNA damage of three new diterpenoids from the brown alga Dictoyota dichotoma” (Eur J Med Chem, 2011)
≈ marks a conversion by molar mass, not a printed value. Calls of active or inactive are those of the source. No cut-off for these calls is given here.

Legend:
Brain = assay: Antioxidant activity in rat brain/kidney homogenates assessed as inhibition of lipid peroxidation at 2 mM by […] method; format: functional, tissue-based
Calf thymus DNA = assay: Protective activity against bleomycin-iron complex-induced calf thymus DNA damage assessed as chromogen formation at 0.1 mg/ml after 1 hr; format: nucleic-acid assay; details: Bos taurus
MCF7 = assay: Cytotoxicity against human MCF7 cells assessed as loss of cell monolayers after 96 hrs; format: functional, cell-based; details: MCF7, 96 h
HepG2 = assay: Cytotoxicity against human HepG2 cells assessed as loss of cell monolayers after 96 hrs; format: functional, cell-based; details: HepG2, 96 h
Vero = assay: Cytotoxicity against african green monkey Vero cells assessed as loss of cell monolayers after 96 hrs; format: cell-based; details: Chlorocebus sabaeus
[1] = Cytotoxicity against human WI38 cells assessed as loss of cell monolayers after 96 hrs; format: cell-based; details: WI-38, 96 h
[2] = Cytotoxicity against mouse EAC assessed as dead cells at 1 mg/ml after 2 hrs using trypan blue staining by hemocytometer analysis; format: functional, Ehrlich
[3] = Toxicity in rat erythrocytes assessed as hemolysis at 2 mM; format: cell-based, Erythrocyte; details: read-out: Activity
[4] = Cytotoxicity against human WI38 cells assessed as cell viability at 10 ug/ml after 96 hrs relative to control; format: cell-based, WI-38; details: read-out: Activity
[5] = Cytotoxicity against human WI38 cells assessed as cell viability at 100 ug/ml after 96 hrs relative to control; format: cell-based, WI-38; details: read-out: Activity
[6] = Cytotoxicity against human WI38 cells assessed as cell viability at 50 ug/ml after 96 hrs relative to control; format: cell-based, WI-38; details: read-out: Activity
[7] = Cytotoxicity against mouse EAC assessed as dead cells at 25 ug/ml after 2 hrs using trypan blue staining by hemocytometer analysis; format: functional, Ehrlich

Row | Compound | inhibition (Brain) [%] | Activity (Calf thymus DNA) | IC50 (MCF7) [µg/mL] | IC50 (HepG2) [µg/mL] | IC50 (Vero) [µg/mL] | IC50 [1] [µg/mL] | Activity [2] [%] | hemolysis at 2000 µM [3] [%] | viability at 96 h, 10 ug/ml [4] [%] | viability at 96 h, 100 ug/ml [5] [%] | viability at 96 h, 50 ug/ml [6] [%] | Activity [7] [%]
1 | C=C1C[C@@H](O)[C@@H]([C@H](C)CCC=C(C)C)[C@@H](O)[C@@H]2C(C)=CC[C@@H]12 | 61.6 | Active | 68.2 (≈ 224 µM) | 81.2 (≈ 267 µM) | 72.3 (≈ 237 µM) | 62.6 (≈ 206 µM) | 60.9 | 1.1 | – | – | – | –
2 | C=C1CC[C@H](OC(C)=O)[C@]2(C)CCC3=C(C(C)C)CC[C@@]3(C)C[C@@]12O [AMIJIOL ACETATE] | 83.3 | Active | 21.2 | 25.1 | 20.5 | 14.2 | 85.9 | 0.7 | 65 | 0 | 12 | –
3 | C=C1CC[C@H](O)[C@]2(C)C[C@H](OC(C)=O)C3=C(C(C)C)[C@H](OC(C)=O)C[C@@]3(C)C[C@@]12O [AMIJIOL-7,10-DIACETATE] | 80.2 | Active | 30.5 (≈ 72.5 µM) | 47 (≈ 112 µM) | 21.4 (≈ 50.9 µM) | 16.2 (≈ 38.5 µM) | 71.2 | 1.4 | – | – | – | –
4 | C=C1CC[C@H](O)[C@]2(C)CCC3=C(C(C)C)CC[C@@]3(C)C[C@@]12O [AMIJIOL] | 59.2 | Active | 75.5 (≈ 248 µM) | 70.2 (≈ 231 µM) | 76.4 (≈ 251 µM) | 84.6 (≈ 278 µM) | 56 | 0.5 | – | – | – | –
5 | O=C1O[C@H]([C@@H](O)CO)C(O)=C1O [ASCORBIC ACID] | 88.6 | – | – | – | – | – | – | 0.85 | – | – | – | –
6 | CC(C)=CCC[C@@H](C)[C@H]1[C@@H](O)[C@@H]2C(C)=CC[C@H]2[C@@](C)(O)C[C@H]1O [DICTYOL C] | 57.7 | inactive | 140 (≈ 436 µM) | 101 (≈ 312 µM) | 161 (≈ 498 µM) | 111 (≈ 343 µM) | 18 | 1.1 | – | – | – | –
7 | C/C1=C\[C@@H](O)C/C(C)=C/C[C@]2(C)CCC(C(C)C)=C2CC1 [DOLABELLATRIENOL] | 24.4 | inactive | 150 (≈ 522 µM) | 102 (≈ 355 µM) | 121 (≈ 418 µM) | 101 (≈ 349 µM) | 15.1 | 5.75 | – | – | – | –
8 | O=c1[nH]cc(F)c(=O)[nH]1 [FLUOROURACIL] | – | – | 2.3 (≈ 17.7 µM) | 8.6 (≈ 66.1 µM) | 6.5 (≈ 50 µM) | 3.2 (≈ 24.6 µM) | – | – | – | – | – | 99.5
9 | CC(C)=CCCC(C)C1CC/C(C)=C/CCC2COC(O)C21 (configuration not stated) [ISODICTYOHEMIACETAL] | 57.4 | Active | 75.5 (≈ 246 µM) | 70.2 (≈ 229 µM) | 76.4 (≈ 249 µM) | 84.6 (≈ 276 µM) | 59.1 | 0.75 | – | – | – | –
10 | CC(C)=CCC[C@@H](C)[C@@H]1CC=C(C)[C@@H]2CC=C(C)[C@H]2[C@@H]1O [ISOPACHYDICTYOL A] | 59.9 | Active | 39.2 (≈ 136 µM) | 39.2 (≈ 136 µM) | 28.3 (≈ 98.1 µM) | 22.4 (≈ 77.6 µM) | 48.4 | 1.4 | – | – | – | –
11 | C=C1CC[C@@H]([C@H](C)CCC=C(C)C)[C@@H](O)[C@@H]2C(C)=CC[C@@H]12 [PACHYDICTYOL A] | 50.2 | Active | 37.5 (≈ 130 µM) | 40.2 (≈ 139 µM) | 27.4 (≈ 95 µM) | 24.6 (≈ 85.3 µM) | 42.9 | 2.45 | – | – | – | –
